Measured values as given in article PMC9973256, “A Cysteine Pair Controls Flavin Reduction by Extracellular Cytochromes during Anoxic/Oxic Environmental Transitions” (mBio, 2023).

Legend:
Assay type in all cases: binding
[1] = target: T1, MtrCsol (soluble MtrC) (Shewanella oneidensis, UniProt Q8EG34); experiment: copurification through anaerobic PD10 size exclusion column, flavin fluorescence; conditions: 1 mM DTT (disulfide reduced), no copurification without DTT or with 50 uM dithionite only
T1 construct: soluble form; lipid anchor site and signal peptide replaced by MtrB signal peptide; C-terminal StrepTactin tag; expressed in S. oneidensis delta-mtrC (LS661); decaheme
T1 sequence (Q8EG34 26-671): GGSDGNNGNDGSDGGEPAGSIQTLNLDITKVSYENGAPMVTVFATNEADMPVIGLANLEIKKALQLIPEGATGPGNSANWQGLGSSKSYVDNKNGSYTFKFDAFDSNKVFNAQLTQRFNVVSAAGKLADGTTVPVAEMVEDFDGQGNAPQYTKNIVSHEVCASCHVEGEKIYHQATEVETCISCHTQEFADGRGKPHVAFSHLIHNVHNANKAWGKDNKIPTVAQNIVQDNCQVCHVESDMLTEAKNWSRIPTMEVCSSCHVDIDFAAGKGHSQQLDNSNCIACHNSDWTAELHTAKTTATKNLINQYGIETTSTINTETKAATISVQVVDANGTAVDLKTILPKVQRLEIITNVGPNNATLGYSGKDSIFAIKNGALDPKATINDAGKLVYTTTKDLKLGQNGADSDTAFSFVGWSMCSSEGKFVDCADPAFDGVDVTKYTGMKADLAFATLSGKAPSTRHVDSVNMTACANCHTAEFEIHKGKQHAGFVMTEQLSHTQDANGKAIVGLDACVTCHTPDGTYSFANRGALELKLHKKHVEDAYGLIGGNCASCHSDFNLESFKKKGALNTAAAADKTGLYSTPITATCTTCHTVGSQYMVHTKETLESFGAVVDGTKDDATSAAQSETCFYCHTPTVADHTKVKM

[2] = target: T2, MtrCsol (soluble MtrC) (Shewanella oneidensis, UniProt Q8EG34, C453A); experiment: as above; conditions: 50 uM sodium dithionite (reduced FMN and heme), also with 1 mM DTT, no copurification without reductant
T2 construct: soluble form; lipid anchor site and signal peptide replaced by MtrB signal peptide; C-terminal StrepTactin tag; expressed in S. oneidensis delta-mtrC (LS661); decaheme

[3] = target: T3, MtrCsol (soluble MtrC) (Shewanella oneidensis, UniProt Q8EG34, C453S); experiment: […] NMR titration of FMN; conditions: oxidized protein; 20 mM potassium phosphate pH 7.6, 100 mM KCl, 25 °C; slow exchange
T3 construct: soluble form; lipid anchor site and signal peptide replaced by MtrB signal peptide; C-terminal StrepTactin tag; expressed in S. oneidensis delta-mtrC (LS661); decaheme
T3 sequence (Q8EG34 entry or part of it C453S): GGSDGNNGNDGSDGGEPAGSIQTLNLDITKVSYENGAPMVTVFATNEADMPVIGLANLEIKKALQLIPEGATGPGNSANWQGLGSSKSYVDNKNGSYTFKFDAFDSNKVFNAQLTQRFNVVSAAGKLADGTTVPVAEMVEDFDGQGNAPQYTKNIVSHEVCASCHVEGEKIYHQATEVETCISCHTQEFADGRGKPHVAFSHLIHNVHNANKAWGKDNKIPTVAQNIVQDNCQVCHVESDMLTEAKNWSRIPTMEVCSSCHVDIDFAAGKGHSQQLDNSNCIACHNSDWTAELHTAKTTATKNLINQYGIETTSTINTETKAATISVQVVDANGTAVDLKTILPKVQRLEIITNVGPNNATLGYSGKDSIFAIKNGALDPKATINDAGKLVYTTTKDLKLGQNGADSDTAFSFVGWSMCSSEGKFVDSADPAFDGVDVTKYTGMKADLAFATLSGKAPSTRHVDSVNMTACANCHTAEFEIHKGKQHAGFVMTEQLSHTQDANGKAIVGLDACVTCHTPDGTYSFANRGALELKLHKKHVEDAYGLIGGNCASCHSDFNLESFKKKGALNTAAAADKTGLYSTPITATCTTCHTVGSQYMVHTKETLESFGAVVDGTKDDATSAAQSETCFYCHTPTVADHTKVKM

T2 sequence (Q8EG34 entry or part of it C453A): as the sequence (Q8EG34 entry or part of it C453S) above, with S428A counted along it

Cc1cc2nc3c(=O)[nH]c(=O)nc-3n(C[C@H](O)[C@H](O)[C@H](O)COP(=O)(O)O)c2cc1C [FMN]
copurification through anaerobic PD10 size exclusion column, flavin fluorescence [1]: showing that MtrCC453Asol would form a similar FMN complex to MtrCsol in the presence of DTT | copurification through anaerobic PD10 size exclusion column, flavin fluorescence [2]: revealed copurification of FMN with MtrCC453Asol but not MtrCsol | 31P NMR titration of FMN [3]: signal of FMN upon exposure to oxidized MtrCC453Ssol was monitored
